{"source": "the supplement of paper PMC11208160", "data": [{"test": "recombinant barcode read abundance after kanamycin selection (control-corrected) (log10(CPM+1)); higher = more efficient recombination; sequences stand for … in AGTGCAGAGAAAATCGGCCAGTTTTCTCTGCCTGCAGTCCGCATGCCGT…AGATTTATGCAGCGGACTGCCTTTCTCCCAAAGTGATAAACCGGACAGTATCATGGACCGGTTTTCCCGGTAATCCGTATTTGCAAGGTTGGTTTCACT; site = the 11-nt target", "summary_of_the_method": "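Targets and IS621 bridge RNA target-binding loops were paired in oligos, each with a promoter, a barcode and the J23119-driven first 104 bridge RNA bases. A vector carrying the remaining 73 bp and a T7-inducible recombinase received these by Gibson cloning, and the pool was co-electroporated into E. coli with a donor plasmid. Duplicate plates contained chloramphenicol/ampicillin LB agar (control) or chloramphenicol/ampicillin/kanamycin with 0.1 mM IPTG. Recombination efficiency comes from averaged, control-corrected counts per million of recombinant-junction barcodes, reported as log10(CPM+1).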", "values": [{"sequence": "GAGGAACCTTGGGTTCTAACCTGTTGCCT (site GAGGAACCTAG)", "recombinant barcode read abundance (log10)": 2.12}, {"sequence": "GAGGAACCTTGGGTTCTAACCTGTTGCCT (site TAGGAACCTAG)", "recombinant barcode read abundance (log10)": 1.44}, {"sequence": "GAGGAAGCTTGGGTTCTAACCTGTTGCCT (site GAGGAAGCTAG)", "recombinant barcode read abundance (log10)": 1.81}, {"sequence": "GAGGAAGCTTGGGTTCTAACCTGTTGCCT (site GCGGAAGCTAG)", "recombinant barcode read abundance (log10)": 0.545}, {"sequence": "GAGGAAGCTTGGGTTCTAACCTGTTGCCT (site GGGGAAGCTAG)", "recombinant barcode read abundance (log10)": 0.316}, {"sequence": "GAGGAAGCTTGGGTTCTAACCTGTTGCCT (site GTGGAAGCTAG)", "recombinant barcode read abundance (log10)": 0.473}, {"sequence": "GAGGACTCTTGGGTTCTAACCTGTTGCCC (site GAGGACTCTAG)", "recombinant barcode read abundance (log10)": 2}, {"sequence": "GAGGACTCTTGGGTTCTAACCTGTTGCCC (site GAGGACTCTCG)", "recombinant barcode read abundance (log10)": 0.136}, {"sequence": "GAGGACTCTTGGGTTCTAACCTGTTGCCC (site GAGGACTCTGG)", "recombinant barcode read abundance (log10)": 2.39}, {"sequence": "GAGGACTCTTGGGTTCTAACCTGTTGCCC (site GAGGACTCTTG)", "recombinant barcode read abundance (log10)": 0.682}, {"sequence": "GAGGAGTCTTGGGTTCTAACCTGTTGCCG (site AGAACACCTAA)", "recombinant barcode read abundance (log10)": 0.0129}, {"sequence": "GAGGAGTCTTGGGTTCTAACCTGTTGCCG (site GAGGAGTCTCG)", "recombinant barcode read abundance (log10)": 1.3}, {"sequence": "GAGGAGTCTTGGGTTCTAACCTGTTGCCT (site GAGAAGTCTAG)", "recombinant barcode read abundance (log10)": 1.02}, {"sequence": "GAGGAGTCTTGGGTTCTAACCTGTTGCCT (site GAGCAGTCTAG)", "recombinant barcode read abundance (log10)": 0.0568}, {"sequence": "GAGGAGTCTTGGGTTCTAACCTGTTGCCT (site GAGGAGTCTAG)", "recombinant barcode read abundance (log10)": 2.55}, {"sequence": "GAGGAGTCTTGGGTTCTAACCTGTTGCCT (site GAGTAGTCTAG)", "recombinant barcode read abundance (log10)": 0.171}, {"sequence": "GAGGATCCTTGGGTTCTAACCTGTTGCCT (site GAGGATCCTAG)", "recombinant barcode read abundance (log10)": 2.12}, {"sequence": "GAGGATCCTTGGGTTCTAACCTGTTGCCT (site GGGGATCCTAG)", "recombinant barcode read abundance (log10)": 0.457}, {"sequence": "GAGGCAACTTGGGTTCTAACCTGTTGCTT (site CACGCAACTAA)", "recombinant barcode read abundance (log10)": 0}, {"sequence": "GAGGCAACTTGGGTTCTAACCTGTTGCTT (site GAGGCAACTAA)", "recombinant barcode read abundance (log10)": 0.0561}, {"sequence": "GAGGCTCCTTGGGTTCTAACCTGTTGCCG (site GAGGCTCCTAG)", "recombinant barcode read abundance (log10)": 0.113}, {"sequence": "GAGGCTCCTTGGGTTCTAACCTGTTGCCG (site GAGGCTCCTCG)", "recombinant barcode read abundance (log10)": 0.993}, {"sequence": "GAGGCTCCTTGGGTTCTAACCTGTTGCCG (site GAGGCTCCTGG)", "recombinant barcode read abundance (log10)": 0.138}, {"sequence": "GAGGCTCCTTGGGTTCTAACCTGTTGCCG (site GAGGCTCCTTG)", "recombinant barcode read abundance (log10)": 0.238}, {"sequence": "GAGGGTACTTGGGTTCTAACCTGTTGCCT (site GAGCATACTAG)", "recombinant barcode read abundance (log10)": 0.295}, {"sequence": "GAGGGTACTTGGGTTCTAACCTGTTGCCT (site GAGGGTACTAG)", "recombinant barcode read abundance (log10)": 1.76}, {"sequence": "GAGGGTTCTTGGGTTCTAACCTGTTGCAT (site GAGGGTGCTAG)", "recombinant barcode read abundance (log10)": 0.528}, {"sequence": "GAGGGTTCTTGGGTTCTAACCTGTTGCAT (site GAGGGTTCTAT)", "recombinant barcode read abundance (log10)": 2.66}, {"sequence": "GAGGTAGCTTGGGTTCTAACCTGTTGCCT (site GAGGTAGCTAG)", "recombinant barcode read abundance (log10)": 1.18}, {"sequence": "GAGGTAGCTTGGGTTCTAACCTGTTGCCT (site GATGTATCTAG)", "recombinant barcode read abundance (log10)": 0.563}, {"sequence": "GAGGTGCCTTGGGTTCTAACCTGTTGCAG (site ATAACCTCTAG)", "recombinant barcode read abundance (log10)": 0.174}, {"sequence": "GAGGTGCCTTGGGTTCTAACCTGTTGCAG (site GAGGTGCCTCT)", "recombinant barcode read abundance (log10)": 1.44}, {"sequence": "GAGTAGTCTTGGGTTCTAACCTGTTGCCT (site GAGAAGTCTAG)", "recombinant barcode read abundance (log10)": 0.0847}, {"sequence": "GAGTAGTCTTGGGTTCTAACCTGTTGCCT (site GAGCAGTCTAG)", "recombinant barcode read abundance (log10)": 1.27}, {"sequence": "GAGTAGTCTTGGGTTCTAACCTGTTGCCT (site GAGGAGTCTAG)", "recombinant barcode read abundance (log10)": 0.00957}, {"sequence": "GAGTAGTCTTGGGTTCTAACCTGTTGCCT (site GAGTAGTCTAG)", "recombinant barcode read abundance (log10)": 2.39}, {"sequence": "GAGTCTCCTTGGGTTCTAACCTGTTGCGG (site CTTCGGACTAA)", "recombinant barcode read abundance (log10)": 0.187}, {"sequence": "GAGTCTCCTTGGGTTCTAACCTGTTGCGG (site GAGTCTCCTCC)", "recombinant barcode read abundance (log10)": 0.316}, {"sequence": "GAGTGAGCTTGGGTTCTAACCTGTTGCAT (site GAGAGAGCTAT)", "recombinant barcode read abundance (log10)": 0.645}, {"sequence": "GAGTGAGCTTGGGTTCTAACCTGTTGCAT (site GAGCGAGCTAT)", "recombinant barcode read abundance (log10)": 1.95}, {"sequence": "GAGTGAGCTTGGGTTCTAACCTGTTGCAT (site GAGGGAGCTAT)", "recombinant barcode read abundance (log10)": 0.986}, {"sequence": "GAGTGAGCTTGGGTTCTAACCTGTTGCAT (site GAGTGAGCTAT)", "recombinant barcode read abundance (log10)": 2.53}, {"sequence": "GAGTGAGCTTGGGTTCTAACCTGTTGCGT (site GAGCGATCTAC)", "recombinant barcode read abundance (log10)": 0.689}, {"sequence": "GAGTGAGCTTGGGTTCTAACCTGTTGCGT (site GAGTGAGCTAC)", "recombinant barcode read abundance (log10)": 3}, {"sequence": "GAGTGCTCTTGGGTTCTAACCTGTTGCGT (site GAGCGCTCTAG)", "recombinant barcode read abundance (log10)": 0.0262}, {"sequence": "GAGTGCTCTTGGGTTCTAACCTGTTGCGT (site GAGTGCTCTAC)", "recombinant barcode read abundance (log10)": 2.29}, {"sequence": "GAGTGGCCTTGGGTTCTAACCTGTTGCCT (site GAGTGGCCTAA)", "recombinant barcode read abundance (log10)": 0.316}, {"sequence": "GAGTGGCCTTGGGTTCTAACCTGTTGCCT (site GAGTGGCCTAC)", "recombinant barcode read abundance (log10)": 0.121}, {"sequence": "GAGTGGCCTTGGGTTCTAACCTGTTGCCT (site GAGTGGCCTAG)", "recombinant barcode read abundance (log10)": 0.346}, {"sequence": "GAGTGGCCTTGGGTTCTAACCTGTTGCCT (site GAGTGGCCTAT)", "recombinant barcode read abundance (log10)": 0.182}, {"sequence": "GAGTGGCCTTGGGTTCTAACCTGTTGCGA (site GAGTGGCCTTC)", "recombinant barcode read abundance (log10)": 2.02}, {"sequence": "GAGTGGCCTTGGGTTCTAACCTGTTGCGA (site TCCGTATCTCT)", "recombinant barcode read abundance (log10)": 0.0392}, {"sequence": "GAGTGGCCTTGGGTTCTAACCTGTTGCGT (site GAGTGGCCTAA)", "recombinant barcode read abundance (log10)": 0.314}, {"sequence": "GAGTGGCCTTGGGTTCTAACCTGTTGCGT (site GAGTGGCCTAC)", "recombinant barcode read abundance (log10)": 2.4}, {"sequence": "GAGTGGCCTTGGGTTCTAACCTGTTGCGT (site GAGTGGCCTAG)", "recombinant barcode read abundance (log10)": 0.227}, {"sequence": "GAGTGGCCTTGGGTTCTAACCTGTTGCGT (site GAGTGGCCTAT)", "recombinant barcode read abundance (log10)": 1.32}, {"sequence": "GAGTTCCCTTGGGTTCTAACCTGTTGCCC (site ATTACTTCTAA)", "recombinant barcode read abundance (log10)": 0.0963}, {"sequence": "GAGTTCCCTTGGGTTCTAACCTGTTGCCC (site GAGTTCCCTGG)", "recombinant barcode read abundance (log10)": 1.54}, {"sequence": "GAGTTTCCTTGGGTTCTAACCTGTTGCGT (site GAGTTACCTAC)", "recombinant barcode read abundance (log10)": 0.142}, {"sequence": "GAGTTTCCTTGGGTTCTAACCTGTTGCGT (site GAGTTCCCTAC)", "recombinant barcode read abundance (log10)": 0.278}, {"sequence": "GAGTTTCCTTGGGTTCTAACCTGTTGCGT (site GAGTTGCCTAC)", "recombinant barcode read abundance (log10)": 0.0725}, {"sequence": "GAGTTTCCTTGGGTTCTAACCTGTTGCGT (site GAGTTTCCTAC)", "recombinant barcode read abundance (log10)": 0.791}, {"sequence": "GATACAGCTTGGGTTCTAACCTGTTGCCT (site GAAACAGCTAG)", "recombinant barcode read abundance (log10)": 0.0665}, {"sequence": "GATACAGCTTGGGTTCTAACCTGTTGCCT (site GACACAGCTAG)", "recombinant barcode read abundance (log10)": 0.444}, {"sequence": "GATACAGCTTGGGTTCTAACCTGTTGCCT (site GAGACAGCTAG)", "recombinant barcode read abundance (log10)": 0.155}, {"sequence": "GATACAGCTTGGGTTCTAACCTGTTGCCT (site GATACAGCTAG)", "recombinant barcode read abundance (log10)": 1.16}, {"sequence": "GATACGACTTGGGTTCTAACCTGTTGCCT (site GATACGACTAG)", "recombinant barcode read abundance (log10)": 1.14}, {"sequence": "GATACGACTTGGGTTCTAACCTGTTGCCT (site GATACGCCTAG)", "recombinant barcode read abundance (log10)": 0.748}, {"sequence": "GATACGACTTGGGTTCTAACCTGTTGCCT (site GATACGGCTAG)", "recombinant barcode read abundance (log10)": 0.0662}, {"sequence": "GATACGACTTGGGTTCTAACCTGTTGCCT (site GATACGTCTAG)", "recombinant barcode read abundance (log10)": 0.00976}, {"sequence": "GATACTACTTGGGTTCTAACCTGTTGCAG (site GATACTACTCT)", "recombinant barcode read abundance (log10)": 0.17}, {"sequence": "GATACTACTTGGGTTCTAACCTGTTGCAG (site GATGCTACTCT)", "recombinant barcode read abundance (log10)": 0.11}, {"sequence": "GATAGACCTTGGGTTCTAACCTGTTGCCT (site CATAGACCTAG)", "recombinant barcode read abundance (log10)": 0.126}, {"sequence": "GATAGACCTTGGGTTCTAACCTGTTGCCT (site GATAGACCTAG)", "recombinant barcode read abundance (log10)": 1.57}, {"sequence": "GATAGCTCTTGGGTTCTAACCTGTTGCCT (site AATAGCTCTAG)", "recombinant barcode read abundance (log10)": 0.332}, {"sequence": "GATAGCTCTTGGGTTCTAACCTGTTGCCT (site CATAGCTCTAG)", "recombinant barcode read abundance (log10)": 0.0838}, {"sequence": "GATAGCTCTTGGGTTCTAACCTGTTGCCT (site GATAGCTCTAG)", "recombinant barcode read abundance (log10)": 0.998}]}]}
